Measured values taken from PubChem BioAssay (NCI).
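Grown in 96-well plates, cells were treated for 48 hours with each compound at five concentrations. Insufficient inhibition: endpoint recorded as highest concentration tested. The concentration for full growth arrest is given as TGI.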

Tests used:
Experiment in all cases: NCI tumour cell line growth inhibition, 48 h
786-0 renal = tested on: 786-0 renal
A498 renal = tested on: A498 renal
A549 NSCLC = tested on: A549 NSCLC
ACHN renal = tested on: ACHN renal
CAKI-1 renal = tested on: CAKI-1 renal
COLO 205 colon = tested on: COLO 205 colon
DU-145 prostate = tested on: DU-145 prostate
EKVX NSCLC = tested on: EKVX NSCLC
HCC-2998 colon = tested on: HCC-2998 colon
HCT-116 colon = tested on: HCT-116 colon
HCT-15 colon = tested on: HCT-15 colon
HL-60(TB) leukemia = tested on: HL-60(TB) leukemia
HOP-62 NSCLC = tested on: HOP-62 NSCLC
HOP-92 NSCLC = tested on: HOP-92 NSCLC
HS 578T breast = tested on: HS 578T breast
HT29 colon = tested on: HT29 colon
IGROV1 ovarian = tested on: IGROV1 ovarian
K-562 leukemia = tested on: K-562 leukemia
KM12 colon = tested on: KM12 colon
LOX IMVI melanoma = tested on: LOX IMVI melanoma
M14 melanoma = tested on: M14 melanoma
MALME-3M melanoma = tested on: MALME-3M melanoma
MCF7 breast = tested on: MCF7 breast
MDA-MB-231 breast = tested on: MDA-MB-231 breast
MDA-MB-435 = tested on: MDA-MB-435
MDA-N = tested on: MDA-N
MOLT-4 leukemia = tested on: MOLT-4 leukemia
NCI-H226 lung = tested on: NCI-H226 lung
NCI-H23 lung = tested on: NCI-H23 lung
NCI-H460 lung = tested on: NCI-H460 lung
NCI-H522 lung = tested on: NCI-H522 lung
NCI/ADR-RES ovarian = tested on: NCI/ADR-RES ovarian
OVCAR-3 ovarian = tested on: OVCAR-3 ovarian
OVCAR-4 ovarian = tested on: OVCAR-4 ovarian
OVCAR-5 ovarian = tested on: OVCAR-5 ovarian
OVCAR-8 ovarian = tested on: OVCAR-8 ovarian
PC-3 prostate = tested on: PC-3 prostate
RPMI-8226 leukemia = tested on: RPMI-8226 leukemia
RXF 393 renal = tested on: RXF 393 renal
SF-268 CNS = tested on: SF-268 CNS
SF-295 CNS = tested on: SF-295 CNS
SF-539 CNS = tested on: SF-539 CNS
SK-MEL-2 melanoma = tested on: SK-MEL-2 melanoma
SK-MEL-28 melanoma = tested on: SK-MEL-28 melanoma
SK-MEL-5 melanoma = tested on: SK-MEL-5 melanoma
SK-OV-3 ovarian = tested on: SK-OV-3 ovarian
SN12C renal = tested on: SN12C renal
SNB-19 CNS = tested on: SNB-19 CNS
SNB-75 CNS = tested on: SNB-75 CNS
SR leukemia = tested on: SR leukemia
SW-620 colon = tested on: SW-620 colon
T-47D breast = tested on: T-47D breast
TK-10 renal = tested on: TK-10 renal
U251 CNS = tested on: U251 CNS
UACC-257 melanoma = tested on: UACC-257 melanoma
UACC-62 melanoma = tested on: UACC-62 melanoma
UO-31 renal = tested on: UO-31 renal
BT-549 breast = tested on: BT-549 breast
CCRF-CEM leukemia = tested on: CCRF-CEM leukemia

SMILES: COc1cccc(N(CN2C(=O)CCC2C(=O)O)C(C)=O)c1 (centres undefined)
- TGI (786-0 renal): > 100 µM
- TGI (A498 renal): > 100 µM
- TGI (A549 NSCLC): > 100 µM
- TGI (ACHN renal): > 100 µM
- TGI (CAKI-1 renal): > 100 µM
- TGI (COLO 205 colon): > 100 µM
- TGI (DU-145 prostate): > 100 µM
- TGI (EKVX NSCLC): > 100 µM
- TGI (HCC-2998 colon): > 100 µM
- TGI (HCT-116 colon): > 100 µM
- TGI (HCT-15 colon): > 100 µM
- TGI (HL-60(TB) leukemia): > 100 µM
- TGI (HOP-62 NSCLC): > 100 µM
- TGI (HOP-92 NSCLC): > 100 µM
- TGI (HS 578T breast): > 100 µM
- TGI (HT29 colon): > 100 µM
- TGI (IGROV1 ovarian): > 100 µM
- TGI (K-562 leukemia): > 100 µM
- TGI (KM12 colon): > 100 µM
- TGI (LOX IMVI melanoma): > 100 µM
- TGI (M14 melanoma): > 100 µM
- TGI (MALME-3M melanoma): > 100 µM
- TGI (MCF7 breast): > 100 µM
- TGI (MDA-MB-231 breast): > 100 µM
- TGI (MDA-MB-435): > 100 µM
- TGI (MDA-N): > 100 µM
- TGI (MOLT-4 leukemia): > 100 µM
- TGI (NCI-H226 lung): > 100 µM
- TGI (NCI-H23 lung): > 100 µM
- TGI (NCI-H460 lung): > 100 µM
- TGI (NCI-H522 lung): > 100 µM
- TGI (NCI/ADR-RES ovarian): > 100 µM
- TGI (OVCAR-3 ovarian): > 100 µM
- TGI (OVCAR-4 ovarian): > 100 µM
- TGI (OVCAR-5 ovarian): > 100 µM
- TGI (OVCAR-8 ovarian): > 100 µM
- TGI (PC-3 prostate): > 100 µM
- TGI (RPMI-8226 leukemia): > 100 µM
- TGI (RXF 393 renal): > 100 µM
- TGI (SF-268 CNS): > 100 µM
- TGI (SF-295 CNS): > 100 µM
- TGI (SF-539 CNS): > 100 µM
- TGI (SK-MEL-2 melanoma): > 100 µM
- TGI (SK-MEL-28 melanoma): > 100 µM
- TGI (SK-MEL-5 melanoma): > 100 µM
- TGI (SK-OV-3 ovarian): > 100 µM
- TGI (SN12C renal): > 100 µM
- TGI (SNB-19 CNS): > 100 µM
- TGI (SNB-75 CNS): > 100 µM
- TGI (SR leukemia): > 100 µM
- TGI (SW-620 colon): > 100 µM
- TGI (T-47D breast): > 100 µM
- TGI (TK-10 renal): > 100 µM
- TGI (U251 CNS): > 100 µM
- TGI (UACC-257 melanoma): > 100 µM
- TGI (UACC-62 melanoma): > 100 µM
- TGI (UO-31 renal): > 100 µM

SMILES: CN1CN(c2ccccc2)C2(CCN(CCC3COc4ccccc4O3)CC2)C1=O (centres undefined)
- TGI (786-0 renal): > 100 µM
- TGI (A549 NSCLC): > 100 µM
- TGI (ACHN renal): > 100 µM
- TGI (BT-549 breast): 42.5 µM
- TGI (CAKI-1 renal): 77.5 µM
- TGI (CCRF-CEM leukemia): 77.4 µM
- TGI (COLO 205 colon): 34.2 µM
- TGI (DU-145 prostate): > 100 µM
- TGI (EKVX NSCLC): 51.4 µM
- TGI (HCC-2998 colon): 23.9 µM
- TGI (HCT-116 colon): 23.2 µM
- TGI (HCT-15 colon): > 100 µM
- TGI (HL-60(TB) leukemia): 45.8 µM
- TGI (HT29 colon): 19.6 µM
- TGI (IGROV1 ovarian): 75.2 µM
- TGI (K-562 leukemia): 44.9 µM
- TGI (KM12 colon): 66.7 µM
- TGI (LOX IMVI melanoma): 50.4 µM
- TGI (M14 melanoma): 42 µM
- TGI (MALME-3M melanoma): 38.5 µM
- TGI (MCF7 breast): 72.4 µM
- TGI (MDA-MB-231 breast): > 100 µM
- TGI (MDA-MB-435): 89.4 µM
- TGI (MDA-N): 53.1 µM
- TGI (MOLT-4 leukemia): 70.1 µM
- TGI (NCI-H226 lung): 85.1 µM
- TGI (NCI-H23 lung): > 100 µM
- TGI (NCI-H522 lung): 33.4 µM
- TGI (NCI/ADR-RES ovarian): 49.6 µM
- TGI (OVCAR-3 ovarian): 48.7 µM
- TGI (OVCAR-5 ovarian): 45.9 µM
- TGI (OVCAR-8 ovarian): > 100 µM
- TGI (PC-3 prostate): > 100 µM
- TGI (RPMI-8226 leukemia): 42.7 µM
- TGI (RXF 393 renal): > 100 µM
- TGI (SF-268 CNS): > 100 µM
- TGI (SF-295 CNS): 37.2 µM
- TGI (SF-539 CNS): 38 µM
- TGI (SK-MEL-28 melanoma): 47.3 µM
- TGI (SK-MEL-5 melanoma): 28.2 µM
- TGI (SK-OV-3 ovarian): 71.1 µM
- TGI (SN12C renal): 83.9 µM
- TGI (SNB-19 CNS): 70.8 µM
- TGI (SNB-75 CNS): > 100 µM
- TGI (SR leukemia): 71.6 µM
- TGI (SW-620 colon): > 100 µM
- TGI (T-47D breast): 62.3 µM
- TGI (TK-10 renal): 48.2 µM
- TGI (U251 CNS): 66.5 µM
- TGI (UACC-257 melanoma): 31 µM
- TGI (UACC-62 melanoma): 91.6 µM
- TGI (UO-31 renal): 38.2 µM
